How the values were obtained:
Assay type in all cases: functional
Conditions in all cases: route intraperitoneal
Mus musculus [1] = test: Compound was tested in vivo for its efficacy against the M109 murine tumor model at the dose of 60 mg/kg/injection after ip administration (Data reported with reference to Paclitaxel)
Mus musculus [2] = test: Compound was tested in vivo for its efficacy against the M109 murine tumor model at the dose of 200 mg/kg/inj after ip administration
Mus musculus [3] = test: Compound was tested in vivo for its efficacy against the M109 murine tumor model at the dose of 44 mg/kg/injection after ip administration (Data reported with reference to Paclitaxel)
Mus musculus [4] = test: Compound was tested in vivo for its efficacy against the M109 murine tumor model at the dose of 64 mg/kg/injection after ip administration

| SMILES | T/C (Mus musculus [1]) [%] | T/C (Mus musculus [2]) [%] | T/C (Mus musculus [3]) [%] | T/C (Mus musculus [4]) [%] |
| --- | --- | --- | --- | --- |
| CC(=O)O[C@H]1C(=O)[C@@]2(C)[C@H]([C@H](OC(=O)c3ccccc3)[C@]3(O)C[C@H](OC(=O)[C@H](OCOP(=O)(O)O)[C@@H](NC(=O)c4ccccc4)c4ccccc4)C(C)=C1C3(C)C)[C@]1(OC(C)=O)CO[C@@H]1C[C@@H]2O | 237 | 144 |  |  |
| CCOC(=O)O[C@@H](C(=O)O[C@H]1C[C@@]2(O)[C@@H](OC(=O)c3ccccc3)[C@@H]3[C@]4(OC(C)=O)CO[C@@H]4C[C@H](OCOP(=O)(O)O)[C@@]3(C)C(=O)[C@H](OC(C)=O)C(=C1C)C2(C)C)[C@@H](NC(=O)c1ccccc1)c1ccccc1 |  |  | 175 | 188 |
